# From US20060069132A1, “Azolecarboxamide herbicides” (priority 2004, published 2006)
# Legend:
# blackgrass = assay: Test B postemergence herbicide test; type: in vivo, Alopecurus myosuroides; settings: postemergence, visual rating, scale 0 (no effect) to 100 (complete control)
# Method in brief: (§1)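 Plants grow to 1- to 4-leaf stage (2–18 cm) for postemergence spraying, or to 2-leaf stage for the paddy test. Formulated compound is applied. Greenhouse holding lasts 13–15 days. Response is scored visually relative to controls, 0 no effect to 100 complete control; a dash means no result.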
# ducksalad = assay: Test B flooded paddy test; type: in vivo, Heteranthera limosa; settings: 1000 g ai/ha, visual rating, scale 0 to 100 (0 no effect, 100 complete control), 13 to 15 days
# Method in brief: as §1
# barnyardgrass [1] = assay: Test B pre-/postemergence herbicide test; type: in vivo, Echinochloa crus-galli; settings: for Barnyardgrass plant response rating (0 to 100 scale): 0 = no effect, 100 = complete control; for Barnyardgrass plant response rating (0 to 100 scale) / Plant response rating, Barnyardgrass: preemergence; for Plant response rating, Barnyardgrass: visual rating 0-100, 0 no effect, 100 complete control; for Barnyardgrass plant response rating: postemergence, visual rating, scale 0 (no effect) to 100 (complete control)
# Method in brief: (§2)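 Species tested were Echinochloa crus-galli, Ipomoea coccinea, Xanthium strumarium and Oryza sativa, treated both before emergence and at the 1- to 4-leaf stage; rice and barnyardgrass were also tested under flooding at 2 leaves. Greenhouse incubation lasted 13–15 days before visual 0–100 scoring.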
# Surinam grass = assay: Test B pre-/postemergence herbicide test; type: in vivo, Urochloa decumbens; settings: for Surinam Grass plant response rating (0 to 100 scale): 0 = no effect, 100 = complete control; for Surinam Grass plant response rating (0 to 100 scale) / Plant response rating, Surinam Grass: preemergence; for Plant response rating, Surinam Grass: visual rating 0-100, 0 no effect, 100 complete control; for Surinam Grass plant response rating: postemergence, visual rating, scale 0 (no effect) to 100 (complete control)
# Method in brief: (§3)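 Herbicidal effect was judged by eye on a 0–100 scale after plants stood 13 to 15 days in the greenhouse following pre- or postemergence treatment with surfactant-containing formulations.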
# corn = assay: Test B pre-/postemergence herbicide test; type: in vivo, Zea mays; settings: for Corn plant response rating (0 to 100 scale): 0 = no effect, 100 = complete control; for Corn plant response rating (0 to 100 scale) / Plant response rating, Corn: preemergence; for Plant response rating, Corn: visual rating 0-100, 0 no effect, 100 complete control; for Corn plant response rating: postemergence, visual rating, scale 0 (no effect) to 100 (complete control)
# Method in brief: as §3
# rice = assay: Test B flooded paddy test; type: in vivo, Oryza sativa; settings: 1000 g ai/ha, visual rating, scale 0 to 100 (0 no effect, 100 complete control), 13 to 15 days
# Method in brief: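 Treated at 2-leaf (paddy) or 1–4-leaf, 2–18 cm (postemergence); greenhouse 13–15 d; visual score vs control, 0 none to 100 complete control; dash = not tested.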
# wild oat = assay: Test B postemergence herbicide test; type: in vivo, Avena fatua; settings: postemergence, visual rating, scale 0 (no effect) to 100 (complete control)
# Method in brief: (§4)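 Formulated test chemicals went onto postemergence plants measuring 2 to 18 cm, at one to four leaves. For the paddy assay, species had reached two leaves. Scoring took place 13–15 days later by eye, relative to untreated plants, using 0 for no effect up to 100 for full control.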
# [2] = tested on: small flower umbrella sedge; assay: Test B flooded paddy test; type: in vivo, Cyperus difformis; settings: 1000 g ai/ha, visual rating, scale 0 to 100 (0 no effect, 100 complete control), 13 to 15 days
# Method in brief: as §1
# giant foxtail = assay: Test B pre-/postemergence herbicide test; type: in vivo, Setaria faberi; settings: for Foxtail, Giant plant response rating (0 to 100 scale): 0 = no effect, 100 = complete control; for Foxtail, Giant plant response rating (0 to 100 scale) / Plant response rating, Foxtail, Giant: preemergence; for Plant response rating, Foxtail, Giant: visual rating 0-100, 0 no effect, 100 complete control; for Foxtail, Giant plant response rating: postemergence, visual rating, scale 0 (no effect) to 100 (complete control)
# Method in brief: as §3
# wheat = assay: Test B postemergence herbicide test; type: in vivo, Triticum aestivum; design: key to Wheat plant response rating: 0 = no effect, 100 = complete control; settings: postemergence, visual rating, scale 0 (no effect) to 100 (complete control)
# Method in brief: as §4
# cocklebur = assay: Test B pre-/postemergence herbicide test; type: in vivo, Xanthium strumarium; settings: for Cocklebur plant response rating (0 to 100 scale): 0 = no effect, 100 = complete control; for Cocklebur plant response rating (0 to 100 scale) / Plant response rating, Cocklebur: preemergence; for Plant response rating, Cocklebur: visual rating 0-100, 0 no effect, 100 complete control; for Cocklebur plant response rating: postemergence, visual rating, scale 0 (no effect) to 100 (complete control)
# Method in brief: as §2
# barnyardgrass [3] = assay: Test B flooded paddy test; type: in vivo, Echinochloa crus-galli; settings: 1000 g ai/ha, visual rating, scale 0 to 100 (0 no effect, 100 complete control), 13 to 15 days
# Method in brief: as §1
# lambsquarters = assay: Test B pre-/postemergence herbicide test; type: in vivo, Chenopodium album; settings: for Lambsquarters plant response rating (0 to 100 scale): 0 = no effect, 100 = complete control; for Lambsquarters plant response rating (0 to 100 scale) / Plant response rating, Lambsquarters: preemergence; for Plant response rating, Lambsquarters: visual rating 0-100, 0 no effect, 100 complete control; for Lambsquarters plant response rating: postemergence, visual rating, scale 0 (no effect) to 100 (complete control)
# Method in brief: as §3
# morningglory = assay: Test B pre-/postemergence herbicide test; type: in vivo, Ipomoea coccinea; settings: for Morningglory plant response rating (0 to 100 scale): 0 = no effect, 100 = complete control; for Morningglory plant response rating (0 to 100 scale) / Plant response rating, Morningglory: preemergence; for Plant response rating, Morningglory: visual rating 0-100, 0 no effect, 100 complete control; for Morningglory plant response rating: postemergence, visual rating, scale 0 (no effect) to 100 (complete control)
# Method in brief: as §2
# large crabgrass = assay: Test B pre-/postemergence herbicide test; type: in vivo, Digitaria sanguinalis; settings: for Crabgrass, Large plant response rating (0 to 100 scale): 0 = no effect, 100 = complete control; for Crabgrass, Large plant response rating (0 to 100 scale) / Plant response rating, Crabgrass, Large: preemergence; for Plant response rating, Crabgrass, Large: visual rating 0-100, 0 no effect, 100 complete control; for Crabgrass, Large plant response rating: postemergence, visual rating, scale 0 (no effect) to 100 (complete control)
# Method in brief: as §3
# pigweed = assay: Test B pre-/postemergence herbicide test; type: in vivo, Amaranthus retroflexus; settings: for Pigweed plant response rating (0 to 100 scale): 0 = no effect, 100 = complete control; for Pigweed plant response rating (0 to 100 scale) / Plant response rating, Pigweed: preemergence; for Plant response rating, Pigweed: visual rating 0-100, 0 no effect, 100 complete control; for Pigweed plant response rating: postemergence, visual rating, scale 0 (no effect) to 100 (complete control)
# Method in brief: as §3
smiles,measurement,setting,value
CC(=NO)c1cccc(NC(=O)c2sc(C(C)(C)C)nc2C)c1 [Compound 195],Blackgrass plant response rating,blackgrass; 125 g ai/ha,0
same,Blackgrass plant response rating,blackgrass; 500 g ai/ha,10
same,Ducksalad plant response rating,ducksalad,40
same,Barnyardgrass plant response rating (0 to 100 scale),barnyardgrass [1]; 125 g ai/ha,40
same,"Plant response rating, Barnyardgrass",barnyardgrass [1]; 500 g ai/ha,90
same,Barnyardgrass plant response rating,barnyardgrass [1]; 125 g ai/ha,40
same,Barnyardgrass plant response rating,barnyardgrass [1]; 500 g ai/ha,90
same,Surinam Grass plant response rating (0 to 100 scale),Surinam grass; 125 g ai/ha,10
same,"Plant response rating, Surinam Grass",Surinam grass; 500 g ai/ha,30
same,Surinam Grass plant response rating,Surinam grass; 125 g ai/ha,10
same,Surinam Grass plant response rating,Surinam grass; 500 g ai/ha,30
same,Corn plant response rating (0 to 100 scale),corn; 125 g ai/ha,0
same,"Plant response rating, Corn",corn; 500 g ai/ha,0
same,Corn plant response rating,corn; 125 g ai/ha,20
same,Corn plant response rating,corn; 500 g ai/ha,30
same,Rice plant response rating,rice,30
same,"Oat, Wild plant response rating",wild oat; 125 g ai/ha,10
same,"Oat, Wild plant response rating",wild oat; 500 g ai/ha,20
same,"Sedge, Umbrella plant response rating",[2],50
same,"Foxtail, Giant plant response rating (0 to 100 scale)",giant foxtail; 125 g ai/ha,20
same,"Plant response rating, Foxtail, Giant",giant foxtail; 500 g ai/ha,60
same,"Foxtail, Giant plant response rating",giant foxtail; 125 g ai/ha,20
same,"Foxtail, Giant plant response rating",giant foxtail; 500 g ai/ha,20
same,Wheat plant response rating,wheat; 125 g ai/ha,10
same,Wheat plant response rating,wheat; 500 g ai/ha,20
same,Cocklebur plant response rating (0 to 100 scale),cocklebur; 125 g ai/ha,0
same,"Plant response rating, Cocklebur",cocklebur; 500 g ai/ha,0
same,Cocklebur plant response rating,cocklebur; 125 g ai/ha,30
same,Cocklebur plant response rating,cocklebur; 500 g ai/ha,60
same,Barnyardgrass plant response rating,barnyardgrass [3],60
same,Lambsquarters plant response rating (0 to 100 scale),lambsquarters; 125 g ai/ha,0
same,"Plant response rating, Lambsquarters",lambsquarters; 500 g ai/ha,80
same,Lambsquarters plant response rating,lambsquarters; 125 g ai/ha,0
same,Lambsquarters plant response rating,lambsquarters; 500 g ai/ha,60
same,Morningglory plant response rating (0 to 100 scale),morningglory; 125 g ai/ha,10
same,"Plant response rating, Morningglory",morningglory; 500 g ai/ha,40
same,Morningglory plant response rating,morningglory; 125 g ai/ha,0
same,Morningglory plant response rating,morningglory; 500 g ai/ha,60
same,"Crabgrass, Large plant response rating (0 to 100 scale)",large crabgrass; 125 g ai/ha,80
same,"Plant response rating, Crabgrass, Large",large crabgrass; 500 g ai/ha,100
same,"Crabgrass, Large plant response rating",large crabgrass; 125 g ai/ha,20
same,"Crabgrass, Large plant response rating",large crabgrass; 500 g ai/ha,50
same,Pigweed plant response rating (0 to 100 scale),pigweed; 125 g ai/ha,90
same,"Plant response rating, Pigweed",pigweed; 500 g ai/ha,90
same,Pigweed plant response rating,pigweed; 125 g ai/ha,70
same,Pigweed plant response rating,pigweed; 500 g ai/ha,80
CCNC(=O)c1cccc(NC(=O)c2sc(C(C)(C)C)nc2C)c1 [Compound 198],Blackgrass plant response rating,blackgrass; 125 g ai/ha,0
same,Blackgrass plant response rating,blackgrass; 500 g ai/ha,10
same,Ducksalad plant response rating,ducksalad,70
same,Barnyardgrass plant response rating (0 to 100 scale),barnyardgrass [1]; 125 g ai/ha,40
same,"Plant response rating, Barnyardgrass",barnyardgrass [1]; 500 g ai/ha,90
same,Barnyardgrass plant response rating,barnyardgrass [1]; 125 g ai/ha,0
same,Barnyardgrass plant response rating,barnyardgrass [1]; 500 g ai/ha,30
same,Surinam Grass plant response rating (0 to 100 scale),Surinam grass; 125 g ai/ha,10
same,"Plant response rating, Surinam Grass",Surinam grass; 500 g ai/ha,50
same,Surinam Grass plant response rating,Surinam grass; 125 g ai/ha,20
same,Surinam Grass plant response rating,Surinam grass; 500 g ai/ha,20
same,Corn plant response rating (0 to 100 scale),corn; 125 g ai/ha,0
same,"Plant response rating, Corn",corn; 500 g ai/ha,40
same,Corn plant response rating,corn; 125 g ai/ha,20
same,Corn plant response rating,corn; 500 g ai/ha,70
same,Rice plant response rating,rice,20
same,"Oat, Wild plant response rating",wild oat; 125 g ai/ha,20
same,"Oat, Wild plant response rating",wild oat; 500 g ai/ha,30
same,"Sedge, Umbrella plant response rating",[2],70
same,"Foxtail, Giant plant response rating (0 to 100 scale)",giant foxtail; 125 g ai/ha,20
same,"Plant response rating, Foxtail, Giant",giant foxtail; 500 g ai/ha,100
same,"Foxtail, Giant plant response rating",giant foxtail; 125 g ai/ha,20
same,"Foxtail, Giant plant response rating",giant foxtail; 500 g ai/ha,30
same,Wheat plant response rating,wheat; 125 g ai/ha,0
same,Wheat plant response rating,wheat; 500 g ai/ha,10
same,Cocklebur plant response rating (0 to 100 scale),cocklebur; 125 g ai/ha,0
same,"Plant response rating, Cocklebur",cocklebur; 500 g ai/ha,20
same,Cocklebur plant response rating,cocklebur; 125 g ai/ha,60
same,Cocklebur plant response rating,cocklebur; 500 g ai/ha,90
same,Barnyardgrass plant response rating,barnyardgrass [3],20
same,Lambsquarters plant response rating (0 to 100 scale),lambsquarters; 125 g ai/ha,100
same,"Plant response rating, Lambsquarters",lambsquarters; 500 g ai/ha,100
same,Lambsquarters plant response rating,lambsquarters; 125 g ai/ha,70
same,Lambsquarters plant response rating,lambsquarters; 500 g ai/ha,70
same,Morningglory plant response rating (0 to 100 scale),morningglory; 125 g ai/ha,10
same,"Plant response rating, Morningglory",morningglory; 500 g ai/ha,80
same,Morningglory plant response rating,morningglory; 125 g ai/ha,60
same,Morningglory plant response rating,morningglory; 500 g ai/ha,80
same,"Crabgrass, Large plant response rating (0 to 100 scale)",large crabgrass; 125 g ai/ha,80
same,"Plant response rating, Crabgrass, Large",large crabgrass; 500 g ai/ha,100
same,"Crabgrass, Large plant response rating",large crabgrass; 125 g ai/ha,10
same,"Crabgrass, Large plant response rating",large crabgrass; 500 g ai/ha,20
same,Pigweed plant response rating (0 to 100 scale),pigweed; 125 g ai/ha,90
same,"Plant response rating, Pigweed",pigweed; 500 g ai/ha,100
same,Pigweed plant response rating,pigweed; 125 g ai/ha,50
same,Pigweed plant response rating,pigweed; 500 g ai/ha,50
